# Data taken from US6432949B1, “Amide derivatives useful as inhibitors of the production of cytokines” (AstraZeneca AB, priority 1998, dated 2002).
# Key:
# [1] = target: T1, p38α (Homo sapiens, UniProt Q16539); test: In vitro enzyme assay, p38α isoform; type: biochemical; conditions: read-out: IC50 against p38α
# T1 construct: c-myc (N); 6His (N); made in house; host or cells: E. coli (PET vectors)
# Experimental: The ability of compounds of the invention to inhibit the enzyme p38 kinase was assessed. Activity of test compounds against each of the p38α and […] isoforms of the enzyme was determined.
# Human recombinant MKK6 (GenBank Accesion Number G1209672) was isolated from Image clone 45578 (Genomics 1996, 33, 151) and utilised to produce protein in the form of a GST fusion protein in a pGEX vector using analogous procedures to those disclosed by J. Han et al., Journal of Biological Chemistry, 1996, 271, 2886-2891. p38α (GenBank Accession Number G529039) and p38β (GenBank Accession Number G1469305) were isolated by PCR amplification of human lymphoblastoid cDNA (GenBank Accession Number GM1416) and human foetal brain cDNA [synthesised from mRNA (Clontech, catalogue no. 6525-1) using a Gibco superscript cDNA synthesis kit] respectively using oligonucleotides designed for the 5′ and 3′ ends of the human p388α and p38β genes using analogous procedures to those described by J. Han et al., Biochimica et Biolphysica Acta, 1995, 1265, 224-227 and Y. Jiang et al., Journal of Biological Chemistry, 1996, 271, 17920-17926.
# Both p38 protein isoforms were expressed in e coli in PET vectors. Human recombinant p38α and p38β isoforms were produced as 5′ c-myc, 6His tagged proteins. Both MKK6 and the p38 proteins were purified using standard protocols: the GST MKK6 was purified using a glutathione sepharose column and the p38 proteins were purified using nickel chelate columns.
# The p38 enzymes were activated prior to use by incubation with MKK6 for 3 hours at 30° C. The unactivated coli-expressed MKK6 retained sufficient activity to fully activate both isoforns of p38. The activation incubate comprised p38α (10 μl of 10 mg/ml) or p38β (10 μl of 5 mg/ml) together with MKK6 (10 μl of 1 mg/ml), ‘Kinase buffer’ [100 μl; pH 7.4 buffer comprising Tris (50 mM), EGTA (0.1 mM), sodium orthovanadate (0.1 mM) and β-mercaptoethanol (0.1%)] and MgATP (30 μl of 50 mM Mg(OCOCH3)2 and 0.5 mM ATP). This produced enough activated p38 enzyme for 3 Microtiter plates.
# Test compounds were solubilised in DMSO and 10 μl of a 1:10 diluted sample in ‘Kinase Buffer’ was added to a well in a Microtiter plate. For single dose testing, the compounds were tested at 10 μM. ‘Kinase Assay Mix’ [30 μl; comprising Myelin Basic Protein (Gibco BRL cat. no. 1322B-010; 1 ml of a 3.33 mg/ml solution in water), activated p38 enzyme (50 μl) and ‘Kinase Buffer’ (2 ml)] was then added followed by ‘Labelled ATP’ [10 μl; comprising 50 μM ATP, 0.1 μCi ^33P ATP (Amersham International cat. no. BF1000) and 50 mM Mg(OCOCH3)2]. The plates were incubated at room temperature with gentle agitation. Plates containing p38α were incubated for 90 min and plates containing p38β were incubated for 45 min. Incubation was stopped by the addition of 50 μl of 20% trichloroacetic acid (TCA). The precipitated protein was phosphorylated by p38 kinase and test compounds were assessed for their ability to inhibit this phosphorylation. The plates were filtered using a Canberra Packard Unifilter and washed with 2% TCA, dried overnight and counted on a Top Count scintillation counter.
# Test compounds were tested initially at a single dose and active compounds were retested to allow IC50 values to be determined.
# [2] = test system: TNFα production; test: PBMC test: TNFα production by LPS-stimulated human peripheral blood mononuclear cells; type: cell-based
# Experimental: The ability of compounds of this invention to inhibit TNFα production was assessed by using human peripheral blood mononuclear cells which synthesise and secrete TNFα when stimulated with lipopolysaccharide.
# Peripheral blood mononuclear cells (PBMC) were isolated from heparinised (10 units/ml heparin) human blood by density centrifugation (Lymphoprep™; Nycomed). Mononuclear cells were resuspended in culture medium [RPMI 1640 medium (Gibco) supplemented with 50 units/ml penicillin, 50 μg/ml streptomycin, 2 mM glutamine and 1% heat-inactivated human AB serum (Sigma H-1 513)]. Compounds were solubilised in DMSO at a concentration of 50 mM, diluted 1:100 in culture medium and subsequently serial dilutions were made in culture medium containing 1% DMSO. PBMCs (2.4×10^5 cells in 160 μl culture medium) were incubated with 20 μl of varying concentrations of test compound (triplicate cultures) or 20 μl culture medium containing 1% DMSO (control wells) for 30 minutes at 37° C. in a humidified (5%CO2/95% air) incubator (Falcon 3072; 96 well flat-bottom tissue culture plates). 20 μl lipopolysaccharide [LPS E.Coli 0111:B4 (Sigma L4130), final concentration 10 μg/ml] solubilised in culture medium was added to appropriate wells. 20 μl culture medium was added to “medium alone” control wells. Six “LPS alone” and four “medium alone” controls were included on each 96 well plate. Varying concentrations of a known TNFα inhibitor were included in each test, i.e. an inhibitor of the PDE Type IV enzyme (for example see Semmler, J. Wachtel. H. and Endres, S., Int. J. Immunopharmac. (1993), 15(3), 409-413) or an inhibitor of proTNFα convertase (for example, see McGeehan, G. M. et al. Nature (1994) 370, 558-561). Plates were incubated for 7 hours at 37° C. (humidified incubator) after which 100 μl of the supernatant was removed from each well and stored at −70° C. (96 well round-bottom plates; Corning 25850). TNFα levels were determined in each sample using a human TNFα ELISA (see WO92/10190 and Current Protocols in Molecular Biology, vol 2 by Frederick M. Ausbel et al., John Wiley and Sons Inc.).
# % inhibition=(LPS alone−medium alone)−(test concentration−medium alone)×100(LPS alone−medium alone)
# [3] = test system: TNFα production; test: Human Whole Blood (HWB) test: TNFα production by LPS-stimulated human whole blood; type: cell-based
# Experimental: The ability of the compounds of this invention to inhibit TNFα production was also assessed in a human whole blood assay. Human whole blood secretes TNFα when stimulated with LPS. This property of blood forms the basis of an assay which is used as a secondary test for compounds which profile as active in the PBMC test.
# Heparinised (10 units/ml) human blood was obtained from volunteers. 160 μl whole blood were added to 96 well round-bottom plates (Corning 25850). Compounds were solubilised and serially diluted in RPMI 1640 medium (Gibco) supplemented with 50 units/ml penicillin, 50 μg/ml streptomycin and 2 mM glutamine, as detailed above. 20 μl of each test concentration was added to appropriate wells (triplicate cultures). 20 μl of RPMI 1640 medium supplemented with antibiotics and glutamine was added to control wells. Plates were incubated for 30 minutes at 37° C. (humidified incubator), prior to addition of 2011 LPS (final concentration 10 μg/ml). RPMI 1640 medium was added to control wells. Six “LPS alone” and four “medium alone” controls were included on each plate. A known TNFα synthesis/secretion inhibitor was included in each test. Plates were incubated for 6 hours at 37° C. (humidified incubator). […] TNFα levels were measured by ELISA (see WO92/10190 and Current Protocols in Molecular Biology, vol 2 by Frederick M. Ausbel et al., John Wiley and Sons Inc.). […]
# T1 sequence (Q16539 whole entry, canonical isoform): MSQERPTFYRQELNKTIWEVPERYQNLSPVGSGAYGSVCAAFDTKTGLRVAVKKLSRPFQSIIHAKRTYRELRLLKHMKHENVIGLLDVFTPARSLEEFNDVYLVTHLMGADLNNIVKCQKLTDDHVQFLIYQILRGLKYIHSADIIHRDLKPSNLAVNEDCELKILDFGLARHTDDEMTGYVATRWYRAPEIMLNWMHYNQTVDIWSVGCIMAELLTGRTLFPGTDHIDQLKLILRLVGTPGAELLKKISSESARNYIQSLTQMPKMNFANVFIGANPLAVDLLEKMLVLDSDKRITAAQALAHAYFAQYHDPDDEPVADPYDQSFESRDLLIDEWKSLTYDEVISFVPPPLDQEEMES
Molecule,IC50 [1],"IC50 ([2]; Homo sapiens, PBMC)",IC50 [3],IC50 [2]
"Cc1ccc(NC(=O)c2ccnc(N3CCOCC3)c2)cc1NC(=O)c1ccc(NCCC2CCCN2C)nc1 (stereo not shown) [Example 22(18), 6-[2-(1-methylpyrrolidin-2-yl)ethylamino]-N-[2-methyl-5(2-morpholinopyrid-4-ylcarbonylamino)phenyl]pyridine-3-carboxamide]",~50 nM,~300 nM,~2000 nM,–
N-[5-(5-isoxazolylcarbonylamino)2-methylphenyl]quinoline-6-carboxamide [Example 14],~100 nM,–,–,~3000 nM
"N#Cc1ccc(C(=O)Nc2ccc(Cl)c(NC(=O)c3ccc4ncccc4c3)c2)cc1 [Example 10, N-[2-chloro-5-(4-cyanobenzamido)phenyl]quinoline6-carboxamide]",~50 nM,~2000 nM,–,–
"Cc1ccc(NC(=O)c2cccc(N(C)C)c2)cc1NC(=O)c1ccc2ncsc2c1 [Example 8, Compound No. 2, N-[5-(3dimethylaminobenzamido)-2-methylphenyl]benzothiazole-6-carboxamide]",~100 nM,~5000 nM,–,–

# The remaining molecules from weak to strong by IC50 [1], led by results:
IC50 [1],"IC50 ([2]; Homo sapiens, PBMC)",IC50 [3],Molecule,IC50 [2]
~1000 nM,~9000 nM,–,"Cc1ccc(NC(=O)c2cccc(N(C)C)c2)cc1NC(=O)c1ccc(Cl)nc1 [Example 1, 6-chloro-N-[5-(3-dimethylaminobenzamido)-2-methylphenyl]pyridine-3-carboxamide]",–
~50 nM,–,~3000 nM,"Cc1ccc(NC(=O)c2ccnc(N3CCOCC3)c2)cc1NC(=O)c1ccc(NCCCN(C)C)nc1 [Example 22(14), 6-(3-dimethylaminopropylamino)-N-[2-methyl-5-(2-morpholinopyrid-4-ylcarbonylamino)phenyl]pyridine-3-carboxamide]",–
